Earlier results in patent US20130338095A1, “Chemosensory Receptor Ligand-Based Therapies” (ELCELYX THERAPEUTICS, INC., priority 2010, published 2013).

Tests used:
GLP-1 = details: rats
[1] = bitter phytonutrients in common plant foods
[2] = patients with jejunostomy
sweet receptor = target: T1, sweet receptor (Homo sapiens, UniProt Q7RTX0+Q8TE23); details: relative sweetness on a weight comparison basis to sucrose (=1.0)
T1 sequence (Q8TE23 20-839): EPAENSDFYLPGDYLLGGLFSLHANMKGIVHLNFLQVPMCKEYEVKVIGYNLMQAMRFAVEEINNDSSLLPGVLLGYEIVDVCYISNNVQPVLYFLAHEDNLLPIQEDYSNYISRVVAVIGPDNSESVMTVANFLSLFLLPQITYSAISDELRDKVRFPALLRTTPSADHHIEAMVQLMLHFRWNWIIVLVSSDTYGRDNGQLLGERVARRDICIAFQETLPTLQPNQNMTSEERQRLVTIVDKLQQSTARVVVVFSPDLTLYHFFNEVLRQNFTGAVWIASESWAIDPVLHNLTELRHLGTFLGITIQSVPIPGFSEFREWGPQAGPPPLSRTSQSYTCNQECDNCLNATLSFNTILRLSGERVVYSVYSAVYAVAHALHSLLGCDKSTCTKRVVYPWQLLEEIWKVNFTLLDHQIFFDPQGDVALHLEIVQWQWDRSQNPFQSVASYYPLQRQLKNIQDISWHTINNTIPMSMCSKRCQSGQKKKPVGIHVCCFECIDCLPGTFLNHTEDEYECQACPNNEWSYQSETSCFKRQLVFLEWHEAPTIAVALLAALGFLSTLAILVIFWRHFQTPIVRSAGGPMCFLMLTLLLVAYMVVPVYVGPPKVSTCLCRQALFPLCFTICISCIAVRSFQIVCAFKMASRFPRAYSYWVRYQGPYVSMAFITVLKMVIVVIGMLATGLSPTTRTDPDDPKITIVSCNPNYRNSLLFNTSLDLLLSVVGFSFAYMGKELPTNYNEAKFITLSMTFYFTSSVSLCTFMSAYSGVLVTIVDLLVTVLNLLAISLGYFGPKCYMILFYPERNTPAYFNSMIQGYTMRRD
T1 sequence (Q7RTX0 21-852): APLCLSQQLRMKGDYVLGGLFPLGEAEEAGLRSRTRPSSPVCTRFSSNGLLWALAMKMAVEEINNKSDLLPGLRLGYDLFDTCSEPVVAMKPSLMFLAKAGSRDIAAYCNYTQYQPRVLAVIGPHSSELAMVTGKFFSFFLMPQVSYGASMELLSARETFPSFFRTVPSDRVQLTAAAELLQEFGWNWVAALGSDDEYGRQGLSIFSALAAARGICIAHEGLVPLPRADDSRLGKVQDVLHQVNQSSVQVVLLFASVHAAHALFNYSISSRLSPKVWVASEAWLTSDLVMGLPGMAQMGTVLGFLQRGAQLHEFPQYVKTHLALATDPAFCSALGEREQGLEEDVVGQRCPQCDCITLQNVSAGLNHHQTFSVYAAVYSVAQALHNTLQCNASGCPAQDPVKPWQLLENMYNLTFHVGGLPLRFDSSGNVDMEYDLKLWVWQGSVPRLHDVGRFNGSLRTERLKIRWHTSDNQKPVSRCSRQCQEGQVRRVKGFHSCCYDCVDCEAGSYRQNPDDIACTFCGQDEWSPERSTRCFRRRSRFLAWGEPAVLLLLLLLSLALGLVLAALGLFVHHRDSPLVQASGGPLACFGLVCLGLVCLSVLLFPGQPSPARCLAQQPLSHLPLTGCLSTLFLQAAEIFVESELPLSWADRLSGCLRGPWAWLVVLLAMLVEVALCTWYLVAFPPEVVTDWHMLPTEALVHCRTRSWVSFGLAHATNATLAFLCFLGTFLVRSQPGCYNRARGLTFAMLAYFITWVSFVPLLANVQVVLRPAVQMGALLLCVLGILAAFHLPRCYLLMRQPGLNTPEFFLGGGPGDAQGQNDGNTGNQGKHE

Row | Molecule | Taste quality [1] | also measured
1 | OCCN1C[C@H](O)[C@@H](O)[C@H](O)[C@H]1CO [miglitol] |  | increase in GLP-1 with administration of a DPP-IV inhibitor (GLP-1): synergistic
2 | COc1ccc(-c2cc(=O)c3c(OC)c(OC)c(OC)c(OC)c3o2)cc1 [Tangeretin] | Bitter | 
3 | O=c1c(-c2ccc(O)cc2)coc2cc(O[C@@H]3O[C@H](CO)[C@@H](O)[C@H](O)[C@H]3O)cc(O)c12 [Genistin] | Astringent | 
4 | C[S+]([O-])CCCN=C=S (stereo not drawn) [3-Methyl-sulfinylpropyl isothiocyanate] | Acrid mustard oils | 
5 | C[C@@H]1O[C@@H](O[C@H]2[C@H](Oc3cc(O)c4c(c3)O[C@H](c3ccc(O)cc3)CC4=O)O[C@H](CO)[C@@H](O)[C@@H]2O)[C@H](O)[C@H](O)[C@H]1O [Naringin] | Bitter | 
6 | CC1(C)O[C@H]2CC(=O)OC[C@]23[C@H]2CC[C@@](C)([C@@H](O[C@@H]4O[C@H](CO)[C@@H](O)[C@H](O)[C@H]4O)c4ccoc4)[C@@]4(O[C@@H]4C(=O)O)[C@]2(C)C(=O)C[C@@H]13 [Limonin glucoside] | Tasteless | 
7 | GLP-2: gut hormone, glucagon-like peptide 2 (HADGSFSDEMNTILDNLAARDFINWLIQTKITD; Glucagon-like peptide 2; UniProt P01275 146-178, looked up) |  | intestinal absorption of energy [2]: improve; intestinal wet weight absorption [2]: improve
8 | O=S(=O)(O)ON=C(Cc1c[nH]c2ccccc12)S[C@@H]1O[C@H](CO)[C@@H](O)[C@H](O)[C@H]1O [Glucobrassicin] | Bitter | 
9 | COc1ccc(-c2cc(=O)c3c(OC)c(OC)c(OC)cc3o2)cc1OC [Sinensetin] | Bitter | 
10 | O=c1c(-c2ccc(O)cc2)coc2cc(O)ccc12 [daidzein] | Bitter or astringent | 
11 | COc1ccc(-c2cc(=O)c3c(OC)c(OC)c(OC)c(OC)c3o2)cc1OC [Nobiletin] | Bitter | 
12 | O=C(O[C@@H]1Cc2c(O)cc(O)cc2O[C@@H]1c1ccc(O)c(O)c1)c1cc(O)c(O)c(O)c1 [Epicatechin gallate] | Bitter and astringent | 
13 | O=c1c(-c2ccc(O)cc2)coc2cc(O)cc(O)c12 [Genistein] | Bitter or astringent | 
14 | O=c1c(O)c(-c2ccc(O)c(O)c2)oc2cc(O)cc(O)c12 [Quercetin] | Bitter | 
15 | CC[C@@H](C)C(=O)O[C@@H](C)[C@]1(O)CC[C@]2(O)[C@@H]3CC[C@H]4C[C@@H](O[C@@H]5C[C@H](O)[C@H](O[C@H]6C[C@H](OC)[C@H](O[C@H]7C[C@@H](OC)[C@H](O[C@H]8C[C@@H](OC)[C@H](O[C@@H]9O[C@H](C)[C@@H](O[C@@H]%10O[C@H](CO)[C@@H](O)[C@H](O)[C@H]%10O)[C@H](OC)[C@H]9O)[C@@H](C)O8)[C@@H](C)O7)[C@@H](C)O6)[C@@H](C)O5)CC[C@]4(C)[C@H]3C[C@@H](OC(C)=O)[C@]12C [Telosmoside A15] |  | Sweetness/potency (sweet receptor): 1000
16 | COc1c(O)cc2c(c1O)C(=O)[C@H](OC(C)=O)[C@@H](c1ccc(O)cc1)O2 [(2R,3R)-2,3-Dihydro-5,7,4′-trihydroxy-6-methoxy-3-O-acetylflavonol] |  | Sweetness/potency (sweet receptor): 20
17 | CC1(C)[C@@H](O[C@H]2O[C@H](C(=O)O)[C@@H](O)[C@H](O)[C@H]2O[C@@H]2OC[C@H](O)[C@H](O)[C@H]2O)CC[C@]2(C)[C@H]3C(=O)C=C4[C@@H]5C[C@@](C)(C(=O)O)CC[C@]5(C)CC[C@@]4(C)[C@]3(C)CC[C@@H]12 [Araboglycyrrhizin] |  | Sweetness/potency (sweet receptor): 150
18 | CC(=O)O[C@H]1CC(=O)OC(C)(C)[C@@H]2CC(=O)[C@]3(C)[C@H](CC[C@@]4(C)[C@H](c5ccoc5)OC(=O)[C@H]5O[C@]543)[C@@]12C [Nomilin] | Bitter | 
19 | C[S+]([O-])CCCCN=C=S (stereo not drawn) [4-Methylsulfinyl butyl isothiocyanate] | Acrid mustard oils | 
20 | CC1(C(=O)O)C=C2C3CCC4C5(CO)CCC(OC6OC(C(=O)O)C(O)C(O)C6OC6OC(C(=O)O)C(O)C(O)C6O)C(C)(C)C5CCC4(C)C3(C)CCC2(C)CC1 (stereo not drawn) [Periandrin III] |  | Sweetness/potency (sweet receptor): 92
21 | Monellin |  | Sweetness/potency (sweet receptor): 3,000
22 | C=CC1CNC(=S)O1 (stereo not drawn) [Goitrin 5-vinyl-2-oxazolidine thione, 5-vinyl-2-oxazolidine thione] | Bitter | 
23 | O=c1c(-c2ccc(O)cc2)coc2cc(O[C@@H]3O[C@H](CO)[C@@H](O)[C@H](O)[C@H]3O)ccc12 [Daidzin] | Astringent | 
24 | COc1c(O)cc2c(c1O)C(=O)[C@H](O)[C@@H](c1ccc(O)c(O)c1)O2 [(2R,3R)-2,3-Dihydro-5,7,3′,4′-tetrahydroxy-6-methoxyflavonol] |  | Sweetness/potency (sweet receptor): 15
25 | C=C[C@H](O)CC(=NOS(=O)(=O)O)S[C@@H]1O[C@H](CO)[C@@H](O)[C@H](O)[C@H]1O [Progoitrin] | Bitter | 
26 | C=CCC(=NOS(=O)(=O)O)S[C@@H]1O[C@H](CO)[C@@H](O)[C@H](O)[C@H]1O (stereo in doubt) [Sinigrin] | Bitter | 
27 | C/C(=C\CO)CCC1=C(C=O)CC(OC2OCC(O)C(O)C2O)C2C(C)(CO)CCCC12C (stereo not drawn) [Gaudichaudioside A] |  | Sweetness/potency (sweet receptor): 55
28 | CC1(C)O[C@H]2CC(=O)OC[C@]23[C@H]2CC[C@@]4(C)[C@H](c5ccoc5)OC(=O)[C@H]5O[C@]54[C@]2(C)C(=O)C[C@@H]13 [Limonin] | Bitter | 
29 | Oc1cc2c(cc1O)[C@@H]1c3ccc(O)c(O)c3OC[C@]1(O)C2 [Hematoxylin] |  | Sweetness/potency (sweet receptor): 120
